Laboratory results taken from patent publication US6461997B1, “Triazole sulfones having herbicidal activity” (Monsanto Technology LLC, priority 1999, dated 2002).

system: SASKR (russian thistle); experiment: Pre-emergence herbicidal activity, cool season; assay type: in vivo, Salsola kali; settings: lowest tested rate with 80% or greater inhibition; rates 300, 100, 30, 10 g/ha; about 14 days
Experimental: (§1) Tables 5 to 8 summarize results of tests conducted as described below to determine the pre-emergence herbicidal activity, in the form of a GR80 value, of illustrative compounds of this invention. […] Compounds of the invention were typically applied at rates of 300, 100, 30, and 10 g/ha. Where herbicidal activity was evident but 80% inhibition was not achieved at the highest rate tested, an asterisk (*) is shown in the following tables.
(§2) The pre-emergence tests were conducted by the following procedure. Topsoil was sieved to pass through a 1.27 cm screen. Fertilizer was added to the topsoil and the mixture was then sterilized by heating. The topsoil mixture was placed in a pot and compacted to a depth of 1.0 to 1.25 cm from the top of the pot. Seeds of each of several monocotyledonous and dicotyledonous annual plant species were placed on top of the soil. Additional soil was subsequently placed over the seeds to level-fill the pot. A known amount of each test compound dissolved or suspended in an appropriate organic solvent was diluted with a 50:50 mix of acetone and water and applied to the surface of the soil. After treatment the plants were placed in a greenhouse where they received 0.64 cm of overhead irrigation. All subsequent watering consisted of a light overhead mist and/or subirrigation as needed for germination and growth. Tables 5 and 6 below relate to warm season plant species which were placed after pre-emergence treatment in a greenhouse with a 30/21° C. day/night temperature regime. Tables 7 and 8 below relates to cool season plant species placed after pre-emergence treatment in a greenhouse or growth chamber with an 18/13° C. day/night temperature regime.
(§3) Approximately 14 days after planting and treating, the plants were observed and herbicidal efficacy recorded as percent inhibition by comparison with untreated plants.
(§4) The plant species usually regarded as weeds which were utilized in the tests are identified in the tables below according to the following legend, in which “d” indicates a dicotyledonous species and “m” a monocotyledonous species. All monocotyledonous species included in the tests herein are grasses.

Compound | Pre-emergence activity GR80, SASKR
CCCN(CC)C(=O)n1cnc(S(=O)(=O)C(F)(F)Cl)n1 [Example 87] | [empty]
O=C(N1CCCC1)n1cnc(S(=O)(=O)C(F)(F)C(F)F)n1 [Example 71] | [empty]

system: SOLNI (black nightshade); experiment: Pre-emergence herbicidal activity, warm season; assay type: in vivo, Solanum nigrum; settings: GR80 = lowest tested rate (300, 100, 30, 10 g/ha) with 80% or greater inhibition; approx. 14 days after treating; 30/21° C.
Experimental: as §1, §2, §3, §4

Compound | Pre-emergence activity (GR80) SOLNI
CCCN(CC)C(=O)n1cnc(S(=O)(=O)C(F)(F)Cl)n1 [Example 87] | 100 g/ha
O=C(N1CCCC1)n1cnc(S(=O)(=O)C(F)(F)C(F)F)n1 [Example 71] | 300 g/ha

system: SINAR (wild mustard); experiment: Pre-emergence herbicidal activity, cool season; assay type: in vivo, Sinapis arvensis; settings: lowest tested rate with 80% or greater inhibition; rates 300, 100, 30, 10 g/ha; about 14 days
Experimental: as §1, §2, §3, §4

Compound | Pre-emergence activity GR80, SINAR
CCCN(CC)C(=O)n1cnc(S(=O)(=O)C(F)(F)Cl)n1 [Example 87] | [empty]
O=C(N1CCCC1)n1cnc(S(=O)(=O)C(F)(F)C(F)F)n1 [Example 71] | [empty]

system: DIGSA (large crabgrass); experiment: Pre-emergence herbicidal activity, warm season; assay type: in vivo, Digitaria sanguinalis; settings: GR80 = lowest tested rate (300, 100, 30, 10 g/ha) with 80% or greater inhibition; approx. 14 days after treating; 30/21° C.
Experimental: as §1, §2, §3, §4

Compound | Pre-emergence activity (GR80) DIGSA
CCCN(CC)C(=O)n1cnc(S(=O)(=O)C(F)(F)Cl)n1 [Example 87] | 300 g/ha

system: STEME (common chickweed); experiment: Pre-emergence herbicidal activity, cool season; assay type: in vivo, Stellaria media; settings: lowest tested rate with 80% or greater inhibition; rates 300, 100, 30, 10 g/ha; about 14 days
Experimental: as §1, §2, §3, §4

Compound | Pre-emergence activity GR80, STEME
CCCN(CC)C(=O)n1cnc(S(=O)(=O)C(F)(F)Cl)n1 [Example 87] | [empty]
O=C(N1CCCC1)n1cnc(S(=O)(=O)C(F)(F)C(F)F)n1 [Example 71] | 300 g/ha

system: LAMPU (purple deadnettle); experiment: Pre-emergence herbicidal activity, cool season; assay type: in vivo, Lamium purpureum; settings: lowest tested rate with 80% or greater inhibition; rates 300, 100, 30, 10 g/ha; about 14 days
Experimental: as §1, §2, §3, §4

Compound | Pre-emergence activity GR80, LAMPU
CCCN(CC)C(=O)n1cnc(S(=O)(=O)C(F)(F)Cl)n1 [Example 87] | 100 g/ha
O=C(N1CCCC1)n1cnc(S(=O)(=O)C(F)(F)C(F)F)n1 [Example 71] | 300 g/ha

system: SETVI (green foxtail); experiment: Pre-emergence herbicidal activity, cool season; assay type: in vivo, Setaria viridis; settings: GR80 = lowest tested rate (300, 100, 30, 10 g/ha) with 80% or greater inhibition; approx. 14 days after treating; 18/13° C.
Experimental: as §1, §2, §3, §4

Compound | Pre-emergence activity (GR80) SETVI
CCCN(CC)C(=O)n1cnc(S(=O)(=O)C(F)(F)Cl)n1 [Example 87] | 100 g/ha
O=C(N1CCCC1)n1cnc(S(=O)(=O)C(F)(F)C(F)F)n1 [Example 71] | 100 g/ha

system: SETFA (giant foxtail); experiment: Pre-emergence herbicidal activity, warm season; assay type: in vivo, Setaria faberi; settings: GR80 = lowest tested rate (300, 100, 30, 10 g/ha) with 80% or greater inhibition; approx. 14 days after treating; 30/21° C.
Experimental: as §1, §2, §3, §4

Compound | Pre-emergence activity (GR80) SETFA
CCCN(CC)C(=O)n1cnc(S(=O)(=O)C(F)(F)Cl)n1 [Example 87] | 300 g/ha
O=C(N1CCCC1)n1cnc(S(=O)(=O)C(F)(F)C(F)F)n1 [Example 71] | 300 g/ha

system: VERPE (creeping speedwell); experiment: Pre-emergence herbicidal activity, cool season; assay type: in vivo, Veronica persicaria; settings: lowest tested rate with 80% or greater inhibition; rates 300, 100, 30, 10 g/ha; about 14 days
Experimental: as §1, §2, §3, §4

Compound | Pre-emergence activity GR80, VERPE
CCCN(CC)C(=O)n1cnc(S(=O)(=O)C(F)(F)Cl)n1 [Example 87] | 100 g/ha
O=C(N1CCCC1)n1cnc(S(=O)(=O)C(F)(F)C(F)F)n1 [Example 71] | [empty]

system: PANMI (wild proso millet); experiment: Pre-emergence herbicidal activity, warm season; assay type: in vivo, Panicum miliaceum; settings: GR80 = lowest tested rate (300, 100, 30, 10 g/ha) with 80% or greater inhibition; approx. 14 days after treating; 30/21° C.
Experimental: as §1, §2, §3, §4

Compound | Pre-emergence activity (GR80) PANMI
CCCN(CC)C(=O)n1cnc(S(=O)(=O)C(F)(F)Cl)n1 [Example 87] | 30 g/ha
O=C(N1CCCC1)n1cnc(S(=O)(=O)C(F)(F)C(F)F)n1 [Example 71] | 300 g/ha

system: BRAPP (broadleaf signalgrass); experiment: Pre-emergence herbicidal activity, warm season; assay type: in vivo, Brachiaria platyphylla; settings: GR80 = lowest tested rate (300, 100, 30, 10 g/ha) with 80% or greater inhibition; approx. 14 days after treating; 30/21° C.
Experimental: as §1, §2, §3, §4

Compound | Pre-emergence activity (GR80) BRAPP
CCCN(CC)C(=O)n1cnc(S(=O)(=O)C(F)(F)Cl)n1 [Example 87] | 300 g/ha

system: ECHCG (barnyardgrass); experiment: Pre-emergence herbicidal activity, warm season; assay type: in vivo, Echinochloa crus-galli; settings: GR80 = lowest tested rate (300, 100, 30, 10 g/ha) with 80% or greater inhibition; approx. 14 days after treating; 30/21° C.
Experimental: as §1, §2, §3, §4

Compound | Pre-emergence activity (GR80) ECHCG
CCCN(CC)C(=O)n1cnc(S(=O)(=O)C(F)(F)Cl)n1 [Example 87] | 100 g/ha

system: POLCO (wild buckwheat); experiment: Pre-emergence herbicidal activity, cool season; assay type: in vivo, Polygonum convolvulus; settings: lowest tested rate with 80% or greater inhibition; rates 300, 100, 30, 10 g/ha; about 14 days
Experimental: as §1, §2, §3, §4

Compound | Pre-emergence activity GR80, POLCO
CCCN(CC)C(=O)n1cnc(S(=O)(=O)C(F)(F)Cl)n1 [Example 87] | [empty]
O=C(N1CCCC1)n1cnc(S(=O)(=O)C(F)(F)C(F)F)n1 [Example 71] | 300 g/ha

system: SORVU (shattercane); experiment: Pre-emergence herbicidal activity, warm season; assay type: in vivo, Sorghum vulgare; settings: GR80 = lowest tested rate (300, 100, 30, 10 g/ha) with 80% or greater inhibition; approx. 14 days after treating; 30/21° C.
Experimental: as §1, §2, §3, §4

Compound | Pre-emergence activity (GR80) SORVU
CCCN(CC)C(=O)n1cnc(S(=O)(=O)C(F)(F)Cl)n1 [Example 87] | 300 g/ha

system: POROL (common purslane); experiment: Pre-emergence herbicidal activity, warm season; assay type: in vivo, Portulaca oleracea; settings: GR80 = lowest tested rate (300, 100, 30, 10 g/ha) with 80% or greater inhibition; approx. 14 days after treating; 30/21° C.
Experimental: as §1, §2, §3, §4

Compound | Pre-emergence activity (GR80) POROL
CCCN(CC)C(=O)n1cnc(S(=O)(=O)C(F)(F)Cl)n1 [Example 87] | 100 g/ha
O=C(N1CCCC1)n1cnc(S(=O)(=O)C(F)(F)C(F)F)n1 [Example 71] | 300 g/ha

system: CHEAL (common lambsquarters); experiment: Pre-emergence herbicidal activity, warm season; assay type: in vivo, Chenopodium album; settings: GR80 = lowest tested rate (300, 100, 30, 10 g/ha) with 80% or greater inhibition; approx. 14 days after treating; 30/21° C.
Experimental: as §1, §2, §3, §4

Compound | Pre-emergence activity (GR80) CHEAL
CCCN(CC)C(=O)n1cnc(S(=O)(=O)C(F)(F)Cl)n1 [Example 87] | 300 g/ha
O=C(N1CCCC1)n1cnc(S(=O)(=O)C(F)(F)C(F)F)n1 [Example 71] | 30 g/ha

system: SORHA (johnsongrass (seedling)); experiment: Pre-emergence herbicidal activity, warm season; assay type: in vivo, Sorghum halepense; settings: GR80 = lowest tested rate (300, 100, 30, 10 g/ha) with 80% or greater inhibition; approx. 14 days after treating; 30/21° C.
Experimental: as §1, §2, §3, §4

Compound | Pre-emergence activity (GR80) SORHA
CCCN(CC)C(=O)n1cnc(S(=O)(=O)C(F)(F)Cl)n1 [Example 87] | 100 g/ha
O=C(N1CCCC1)n1cnc(S(=O)(=O)C(F)(F)C(F)F)n1 [Example 71] | 300 g/ha

system: AMARE (redroot pigweed); experiment: Pre-emergence herbicidal activity, warm season; assay type: in vivo, Amaranthus retroflexus; settings: GR80 = lowest tested rate (300, 100, 30, 10 g/ha) with 80% or greater inhibition; approx. 14 days after treating; 30/21° C.
Experimental: as §1, §2, §3, §4

Compound | Pre-emergence activity (GR80) AMARE
CCCN(CC)C(=O)n1cnc(S(=O)(=O)C(F)(F)Cl)n1 [Example 87] | 300 g/ha
O=C(N1CCCC1)n1cnc(S(=O)(=O)C(F)(F)C(F)F)n1 [Example 71] | 300 g/ha

system: GALAP (catchweed bedstraw); experiment: Pre-emergence herbicidal activity, cool season; assay type: in vivo, Galium aparine; settings: lowest tested rate with 80% or greater inhibition; rates 300, 100, 30, 10 g/ha; about 14 days
Experimental: as §1, §2, §3, §4

Compound | Pre-emergence activity GR80, GALAP
CCCN(CC)C(=O)n1cnc(S(=O)(=O)C(F)(F)Cl)n1 [Example 87] | 300 g/ha
O=C(N1CCCC1)n1cnc(S(=O)(=O)C(F)(F)C(F)F)n1 [Example 71] | 100 g/ha

system: CIRAR (canada thistle (seedling)); experiment: Pre-emergence herbicidal activity, warm season; assay type: in vivo, Cirsium arvense; settings: GR80 = lowest tested rate (300, 100, 30, 10 g/ha) with 80% or greater inhibition; approx. 14 days after treating; 30/21° C.
Experimental: as §1, §2, §3, §4

Compound | Pre-emergence activity (GR80) CIRAR
CCCN(CC)C(=O)n1cnc(S(=O)(=O)C(F)(F)Cl)n1 [Example 87] | 300 g/ha
O=C(N1CCCC1)n1cnc(S(=O)(=O)C(F)(F)C(F)F)n1 [Example 71] | 300 g/ha

system: ALOMY (blackgrass); experiment: Pre-emergence herbicidal activity, cool season; assay type: in vivo, Alopecurus myosuroides; settings: GR80 = lowest tested rate (300, 100, 30, 10 g/ha) with 80% or greater inhibition; approx. 14 days after treating; 18/13° C.
Experimental: as §1, §2, §3, §4

Compound | Pre-emergence activity (GR80) ALOMY
CCCN(CC)C(=O)n1cnc(S(=O)(=O)C(F)(F)Cl)n1 [Example 87] | 100 g/ha
O=C(N1CCCC1)n1cnc(S(=O)(=O)C(F)(F)C(F)F)n1 [Example 71] | 300 g/ha

system: AGSST (creeping bentgrass); experiment: Pre-emergence herbicidal activity, cool season; assay type: in vivo, Agrostis stolonifera; settings: GR80 = lowest tested rate (300, 100, 30, 10 g/ha) with 80% or greater inhibition; approx. 14 days after treating; 18/13° C.
Experimental: as §1, §2, §3, §4

Compound | Pre-emergence activity (GR80) AGSST
CCCN(CC)C(=O)n1cnc(S(=O)(=O)C(F)(F)Cl)n1 [Example 87] | 100 g/ha
O=C(N1CCCC1)n1cnc(S(=O)(=O)C(F)(F)C(F)F)n1 [Example 71] | 100 g/ha
